{"source": "patent US20030096264A1", "about": "“Multi-parameter high throughput screening assays (MPHTS)” (Psychiatric Genomics, Inc., priority 2001, published 2003)", "tested_on": "human neuroblastoma cell line NBFL", "assay": "Microarray expression profile of NBFL cells incubated with valproate", "format": "cell-based", "conditions": "0.5 mM valproate, 24 h", "experimental": "The additional signature genes described here were identified using a human neuroblastoma cell line that is known in the art as NBFL (see, Symes et al., Proc. Natl. Acad. Sci. U.S.A. 1993, 90(2):572-576). NBFL cell cultures were maintained in DMEM medium supplemented with L-glutmine, antibiotics, 10% fetal bovine serum and 5% horse serum. Before treatment, cells were passaged, allowed to adhere overnight, and the medium was replaced with serum free medium for 24 hours. The cells were then incubated for 24 hours in either the presence or absence of valproate (0.5 mM), and in the absence of serum. mRNA was extracted from each group of cultures and sent to a commercial company for expression profiling by hybridization to microarrays. Data from at least three independent microarray experiments was then statistically evaluated to identify genes that are differentially expressed in the presence of valproate, relative to expression levels in the absence of valproate.\nTable 3, below, list each of the genes whose expression level changed in cells exposed to valproate, identified using a UniGem V2 array from Incyte (Palo Alto, Calif.) and also provides the expression ratio ((), defined in Example 1, supra) measured for each gene. Each gene is identified in Table 3 by its common name, as well as by the GenBank Accession and Gene Identification (GI) numbers for its nucleotide sequence. A cDNA sequence for each gene listed in Table 3 is also provided in the accompanying Sequence Listing, and its sequence identifier is specified in Table 3 along with the GenBank Accession number. Table 3 also indicates the Unigene cluster number for each gene from a recent build of the NCBI Unigene database."}
{"smiles": "CCCC(CCC)C(=O)O", "note": "[valproate]", "values": [{"measurement": "expression ratio Φ: nidogen (NID)", "setting": "serum free, SEQ ID NO: 25", "result": 1.7}, {"measurement": "expression ratio Φ: silver (SIL)", "setting": "SEQ ID NO: 26", "result": 1.6}, {"measurement": "expression ratio Φ: Homo sapiens clone 23798 and 23825", "setting": "SEQ ID NO: 27", "result": 1.5}, {"measurement": "expression ratio Φ: LIM protein", "setting": "SEQ ID NO: 28", "result": 1.4}, {"measurement": "expression ratio Φ: carnitine palmitoyltransferase II", "setting": "SEQ ID NO: 29", "result": 1.4}, {"measurement": "expression ratio Φ: iduronate-2-sulfatase", "setting": "SEQ ID NO: 30", "result": 1.4}, {"measurement": "expression ratio Φ: dynamin 1", "setting": "SEQ ID NO: 31", "result": 1.4}, {"measurement": "expression ratio Φ: myosin IB", "setting": "SEQ ID NO: 32", "result": 1.4}, {"measurement": "expression ratio Φ: EGF-like-domain", "setting": "SEQ ID NO: 33", "result": 1.4}, {"measurement": "expression ratio Φ: islet cell autoantigen 1", "setting": "SEQ ID NO: 34", "result": "−1.4"}, {"measurement": "expression ratio Φ: regulator of G-protein signaling 5", "setting": "SEQ ID NO: 35", "result": "−1.4"}, {"measurement": "expression ratio Φ: XPA binding protein 1", "setting": "SEQ ID NO: 36", "result": "−1.4"}, {"measurement": "expression ratio Φ: P311 protein", "setting": "SEQ ID NO: 37", "result": "−1.4"}, {"measurement": "expression ratio Φ: SWI/SNF", "setting": "SEQ ID NO: 38", "result": "−1.4"}, {"measurement": "expression ratio Φ: ALL1", "setting": "SEQ ID NO: 39", "result": "−1.4"}, {"measurement": "expression ratio Φ: RNA binding motif", "setting": "SEQ ID NO: 40", "result": "−1.4"}, {"measurement": "expression ratio Φ: SMAD1", "setting": "SEQ ID NO: 41", "result": "−1.4"}, {"measurement": "expression ratio Φ: NADH dehydrogenase (ubiquinone)", "setting": "SEQ ID NO: 42", "result": "−1.4"}, {"measurement": "expression ratio Φ: calmodulin 2", "setting": "SEQ ID NO: 43", "result": "−1.4"}, {"measurement": "expression ratio Φ: vimentin", "setting": "SEQ ID NO: 44", "result": "−1.4"}, {"measurement": "expression ratio Φ: GRB2-associated binding protein 1", "setting": "SEQ ID NO: 45", "result": "−1.5"}, {"measurement": "expression ratio Φ: splicing factor 3b (subunit 3)", "setting": "SEQ ID NO: 46", "result": "−1.5"}, {"measurement": "expression ratio Φ: DKFZp547DO26_r1 (EST)", "setting": "SEQ ID NO: 47", "result": "−1.5"}, {"measurement": "expression ratio Φ: insulinoma-associated 1 (INSM1)", "setting": "SEQ ID NO: 48", "result": "−1.6"}, {"measurement": "expression ratio Φ: neuroendocrine secretory protein 55", "setting": "SEQ ID NO: 49", "result": "−1.6"}, {"measurement": "expression ratio Φ: v-yes-1", "setting": "SEQ ID NO: 50", "result": "−1.6"}, {"measurement": "expression ratio Φ: chromodomain helicase DNA binding", "setting": "SEQ ID NO: 51", "result": "−1.6"}, {"measurement": "expression ratio Φ: cholinergic receptor", "setting": "SEQ ID NO: 52", "result": "−1.7"}, {"measurement": "expression ratio Φ: dopmine β-hydroxylase (DBH)", "setting": "SEQ ID NO: 53", "result": -1.7}, {"measurement": "expression ratio Φ: dopa decarboxylase (DDC)", "setting": "SEQ ID NO: 54", "result": "−2"}, {"measurement": "expression ratio Φ: chromogranin B (CG-B)", "setting": "SEQ ID NO: 55", "result": "−2.1"}]}
